The text below walks through data of patent US10858360B2, “Tricyclic gyrase inhibitors” (priority 2011, dated 2020).

One assay concerns S. aureus ATCC 13709. Description: MIC, S. aureus ATCC 13709 (Alamar Blue broth microdilution). The format is cell-based. To be noted: Alamar Blue read after overnight incubation at 35° C.; for MIC: Staphylococcus aureus, ATCC13709, S. aureus; for MIC Sa: S. aureus. In general terms: The colour change of resazurin is a common sign of viable cells or microbes.
For another assay, the system named is E. coli ATCC 25922. Description: MIC, E. coli ATCC 25922. In kind it is cell-based. To be noted: Alamar Blue read after overnight incubation at 35° C.; for MIC: Escherichia coli, ATCC25922, E. coli; for MIC Ec: E. coli.

A word on the MIC: it is the least concentration at which growth counts as inhibited.

In brackets after ≈: the same amount, converted by molar mass.

In the case of `CNc1cc(F)cc2c1[nH]c1nc(Oc3cnc(CO)nc3)nc(N3CC4CC3C[C@@H]4N)c12` (stereo partly shown) [4.390], the MIC with S. aureus ATCC 13709 and with E. coli ATCC 25922 was at most 0.5 µg/mL throughout.
For the compound `CNc1cc(F)cc2c1[nH]c1nc(Oc3cnc(CO)nc3)nc(N3C[C@@H]4C[C@H]3C[C@@H]4N)c12` [4.391], the MIC in the assay on S. aureus ATCC 13709 and against E. coli ATCC 25922 was at most 0.5 µg/mL each time.
Consider `CNc1cc(F)cc2c1[nH]c1nc(Oc3ccc(CO)nc3)nc(N3CC4CC3C[C@@H]4N)c12` (stereo partly shown) [4.392], for which the MIC against S. aureus ATCC 13709 is 16 µg/mL (≈ 35.6 µM); with E. coli ATCC 25922, above 16 µg/mL.
On to `CNc1cc(F)cc2c1[nH]c1nc(Oc3cnc(CN)nc3)nc(N3CC4CC3CC4N)c12` (stereo not shown) [4.393], for which the “MIC Sa” value in the assay on S. aureus ATCC 13709 is at most 0.5 µg/mL. For the same compound, in the assay with E. coli ATCC 25922, the “MIC Ec” value came out at 1 µg/mL (≈ 2.22 µM).
On to `CNc1cc(F)cc2c1[nH]c1nc(Oc3cnc(CN)nc3)nc(N3CC4CC(N)C4C3)c12` (stereo not shown) [4.394], for which the “MIC Sa” value in the assay with S. aureus ATCC 13709 is at most 0.5 µg/mL. In addition, the “MIC Ec” value in the assay on E. coli ATCC 25922 is at most 0.5 µg/mL.
With `CNc1cc(F)cc2c1[nH]c1nc(Oc3cnc4c(c3)C(=O)N(C)C4C)nc(N3CC4CC(N)C4C3)c12` (stereo not shown) [4.397], the “MIC Sa” value in the assay on S. aureus ATCC 13709 is at most 0.5 µg/mL. Besides, the “MIC Ec” value against E. coli ATCC 25922 was at most 0.5 µg/mL.
Take `CNc1cc(F)cc2c1[nH]c1nc(Oc3cnc4c(c3)C(=O)N(C)C4C)nc(N3CC4CC3C[C@@H]4N)c12` (stereo partly shown) [4.398]: the MIC with S. aureus ATCC 13709 and with E. coli ATCC 25922 was at most 0.5 µg/mL in each case.
As to `CNc1cc(F)cc2c1[nH]c1nc(Oc3cnc(-c4nccn4C)nc3)nc(N3C[C@H](N)C4(CC4)C3)c12` [4.399], the MIC was at most 0.5 µg/mL in the assay with S. aureus ATCC 13709 and 2 µg/mL (≈ 4 µM) in the assay with E. coli ATCC 25922.
With `CCOC(=O)c1ncc(Oc2nc(N3CC4CC3C[C@@H]4N)c3c(n2)[nH]c2c(NC)cc(F)cc23)cn1` (stereo partly shown) [4.400], the MIC in the assay on S. aureus ATCC 13709 and against E. coli ATCC 25922 was at most 0.5 µg/mL throughout.
For the compound `CCOC(=O)c1ncc(Oc2nc(N3CC4C[C@@H](N)C4C3)c3c(n2)[nH]c2c(NC)cc(F)cc23)cn1` (stereo partly shown) [4.401], the MIC in the assay on S. aureus ATCC 13709 and against E. coli ATCC 25922 was at most 0.5 µg/mL throughout.
In the case of `CNc1cc(F)cc2c1[nH]c1nc(Oc3cnc(NCC4CCCO4)nc3)nc(N3C[C@H](N)C4(CC4)C3)c12` (stereo partly shown) [4.406], the minimum inhibitory concentration (MIC) against S. aureus ATCC 13709 was at most 0.5 µg/mL; in the assay with E. coli ATCC 25922, 1 µg/mL (≈ 1.92 µM).
For `CNc1cc(F)cc2c1[nH]c1nc(Oc3cnc(C(C)(C)O)nc3)nc(N3CC4CC3C[C@@H]4N)c12` (stereo partly shown) [4.411] the same measures were at most 0.5 µg/mL and at most 0.5 µg/mL.
Regarding `CNc1cc(F)cc2c1[nH]c1nc(Oc3cnc(C(C)(C)O)nc3)nc(N3CC4C[C@@H](N)C4C3)c12` (stereo partly shown) [4.412], the MIC in the assay on S. aureus ATCC 13709 and in the assay with E. coli ATCC 25922 was at most 0.5 µg/mL throughout.
In the case of `CNc1cc(F)cc2c1[nH]c1nc(Oc3cnc(C(C)(C)O)nc3)nc(N3CC4(CC[C@H]4N)C3)c12` [4.413], the MIC against S. aureus ATCC 13709 and against E. coli ATCC 25922 was at most 0.5 µg/mL each time.
With `CNc1cc(F)cc2c1[nH]c1nc(Oc3cnc(CCO)nc3)nc(N3CC4CC3C[C@@H]4N)c12` (stereo partly shown) [4.414], the figures for the MIC in the assay with S. aureus ATCC 13709 and in the assay on E. coli ATCC 25922 were at most 0.5 µg/mL and 2 µg/mL (≈ 4.31 µM), respectively.
For `CNc1cc(F)cc2c1[nH]c1nc(Oc3cnc(CCO)nc3)nc(N3CC4C[C@@H](N)C4C3)c12` (stereo partly shown) [4.415] the same measures were at most 0.5 µg/mL and 1 µg/mL (≈ 2.15 µM).
Regarding `CNc1cc(F)cc2c1[nH]c1nc(Oc3cnc(C)nc3)nc(-c3cncc(F)c3)c12` [4.417], the MIC is at most 0.5 µg/mL in the assay on S. aureus ATCC 13709 and 1 µg/mL (≈ 2.38 µM) against E. coli ATCC 25922.
On to `CNc1cc(F)cc2c1[nH]c1nc(Oc3cnc(C)nc3)nc(-c3cn[nH]c3)c12` [4.418], for which the figures for the MIC against S. aureus ATCC 13709 and with E. coli ATCC 25922 were at most 0.5 µg/mL and 1 µg/mL (≈ 2.56 µM), respectively.
For the compound `CNc1cc(F)cc2c1[nH]c1nc(Oc3cnc(C)nc3)nc(-c3ccc(Cl)c(N)c3)c12` [4.419], the MIC in the assay on S. aureus ATCC 13709 was at most 0.5 µg/mL; against E. coli ATCC 25922, above 16 µg/mL.
On the same counts, the results for `CNc1cc(F)cc2c1[nH]c1nc(Oc3cnc(C)nc3)nc(-c3ccc(F)cc3CN)c12` [4.420] are 2 µg/mL (≈ 4.47 µM) and above 16 µg/mL.
As to `CNc1cc(F)cc2c1[nH]c1nc(Oc3cnc(C)nc3)nc(-c3cc(CN)ccc3F)c12` [4.421], the minimum inhibitory concentration (MIC) in the assay with S. aureus ATCC 13709 came out at 2 µg/mL (≈ 4.47 µM); against E. coli ATCC 25922 it was 8 µg/mL (≈ 17.9 µM).
For `CNc1cc(F)cc2c1[nH]c1nc(Oc3cnc(C)nc3)nc(-c3cccc(CN)c3F)c12` [4.422] the same measures were 4 µg/mL (≈ 8.94 µM) and 16 µg/mL (≈ 35.8 µM).
As for `Cc1ncc(Oc2nc(N3C[C@H](N)C4(CC4)C3)c3c(n2)[nH]c2c(N(C)C(=O)[C@H](C)N)cc(F)cc23)cn1` [4.423], the MIC in the assay with S. aureus ATCC 13709 and with E. coli ATCC 25922 was above 16 µg/mL each time.
Regarding `Cc1ncc(Oc2nc(N3C[C@H](N)C4(CC4)C3)c3c(n2)[nH]c2c(N(C)C(=O)[C@H](C)NC(=O)[C@H](C)N)cc(F)cc23)cn1` [4.425], the minimal inhibitory concentration (MIC) against S. aureus ATCC 13709 and against E. coli ATCC 25922 was above 16 µg/mL in each case.
With `Cc1ncc(Oc2nc(N3C[C@H](N)C4(CC4)C3)c3c(n2)[nH]c2c(N(C)C(=O)CN)cc(F)cc23)cn1` [4.426], the MIC in the assay with S. aureus ATCC 13709 was 8 µg/mL (≈ 16.3 µM); against E. coli ATCC 25922 it was above 16 µg/mL.
Turning to `Cc1ncc(Oc2nc(N3C[C@H](NC(=O)CN)C4(CC4)C3)c3c(n2)[nH]c2c(N(C)C(=O)CN)cc(F)cc23)cn1` [4.427], the MIC against S. aureus ATCC 13709 and with E. coli ATCC 25922 was above 16 µg/mL throughout.
